{"source": "patent US9821080B2", "about": "(priority 2011, dated 2017)", "key": {"[1]": {"tested_on": "H1N1", "parameters": "species or system influenza virus A/Puerto Rico/8/1934 (H1N1)"}, "[2]": {"tested_on": "ST cells", "format": "cell-based, swine"}}, "data": [{"substance": "fluorescein isothiocyanate [FITC]", "values": [{"measurement": "total fluorescence relative to H1N1 modified with 25 μg/ml FSL-FLRO4", "setting": "[1]", "result": "about 9 times"}, {"measurement": "fewer labelled virions infecting cells compared with 25 μg/ml FSL-FLRO4 modified H1N1", "setting": "[2]", "result": 9, "unit": "times"}]}]}
